The source of these data is publication PMC7221111 (Drugs in R&D, 2020).

The nature of data set [1]: Population pharmacokinetic model of vancomycin in preterm neonates. The note with it: 500 non-parametric bootstrap runs; typical individual 1.48 kg.
The conditions of data set [2]: cited from earlier work.

Values joined by “and” are separate entries in the source; they are usually repeats but may differ in a detail not shown here. Identical values can stand only once. Like-named read-outs stand apart in the source and are kept apart here.

Turning to `CN[C@H](CC(C)C)C(=O)N[C@H]1C(=O)N[C@@H](CC(N)=O)C(=O)N[C@H]2C(=O)N[C@H]3C(=O)N[C@H](C(=O)N[C@H](C(=O)O)c4cc(O)cc(O)c4-c4cc3ccc4O)[C@H](O)c3ccc(c(Cl)c3)Oc3cc2cc(c3O[C@@H]2O[C@H](CO)[C@@H](O)[C@H](O)[C@H]2O[C@H]2C[C@](C)(N)[C@H](O)[C@H](C)O2)Oc2ccc(cc2Cl)[C@H]1O` [vancomycin], in data set [1], the “CL, bootstrap median (95% CI)” value is listed as 0.1 (0.09–0.11) L/h and the “Vd, bootstrap median (95% CI)” value is 0.86 (0.804–0.93) L. In addition, in data set [2], the “Clearance, range reported in a similar population of neonates” value was 0.054 to 0.07 L/h and the “Vd, range reported in a similar population of neonates” value was 0.58 to 1.19 L. For the same molecule, the “Variation in Vd” value in data set [2] (neonatal populations) was 32% and 29.4%. In data set [2] (neonates), the Variation in clearance was 32%. Besides, the “Variation in Vd” value in data set [2] (paediatric populations) was 43% and 77%.
